According to publication PMC9024521, “4-Heteroaryl Substituted Amino-3,5-Dicyanopyridines as New Adenosine Receptor Ligands: Novel Insights on Structure-Activity Relationships and Perspectives” (Pharmaceuticals, 2022):

Assays:
hA2AAR [1] = molecular target: T1, hA2AAR (Homo sapiens, UniProt P29274); test: Competition binding, [3H]ZM241385, hA2A CHO cell membranes; conditions: displacement of [3H]ZM241385, hA2A CHO cells; mean ± SEM of four assays
T1 construct: host or cells: CHO cells
Method: (§1) CHO cells transfected with hA1, hA2A, hA2B and hA3 ARs (Perkin Elmer, Boston, MA, USA) were grown adherently and maintained in Dulbecco’s modified Eagle’s medium with nutrient mixture F12, containing 10% fetal calf serum, penicillin (100 U/mL), streptomycin (100 μg/mL), L-glutamine (2 mM) and geneticine (G418; 0.2 mg/mL), at 37 °C, in 5% CO2/95% air, until their use in cAMP assays. For membrane preparation, the culture medium was removed, and the cells were washed with phosphate-buffered saline and scraped off T75 flasks in ice-cold hypotonic buffer (5 mM Tris HCl, 1 mM EDTA, pH 7.4). The cell suspension was homogenized with a Polytron, centrifuged for 30 min at 40,000× g, at 4 °C, and the resulting membrane pellet was used for competition binding experiments.
All synthesized compounds were tested for their affinity to hA1, hA2A and hA3 ARs. Competition experiments to hA1AR were carried out by incubating 1 nM [^3H]-8-cyclopentyl-1,3-dipropylxanthine ([^3H]-DPCPX) with membrane suspension (50 μg of protein/100 μL) and different concentrations of the examined compounds at 25 °C for 90 min in 50 mM Tris HCl, pH 7.4. Non-specific binding was defined as binding in the presence of 1 μM DPCPX and was always <10% of the total binding. Inhibition experiments to hA2A ARs were performed by incubating the radioligand [^3H]-4-(-2-[7-amino-2-{2-furyl}{1,2,4}triazolo{2,3-a} {1,3,5}triazin-5-yl-amino]ethyl)phenol ([^3H]-ZM241385) (1 nM) with the membrane suspension (50 μg of protein/100 μL) and different concentrations of the examined compounds for 60 min, at 4 °C, in 50 mM Tris HCl (pH 7.4), 10 mM MgCl2. Non-specific binding was determined in the presence of ZM241385 (1 μM) and was about 20% of the total binding. Competition binding experiments to A3ARs were carried out by incubating the membrane suspension (50 μg of protein/100 μL) with 0.5 nM [^125I]-N6-(4-aminobenzyl)-N-methylcarboxamidoadenosine ([^125I]-ABMECA) in the presence of different concentrations of the examined compounds for an incubation time of 120 min, at 4 °C, in 50 mM Tris HCl (pH 7.4), 10 mM MgCl2, 1 mM EDTA. Non-specific binding was defined as binding in the presence of 1 μM ABMECA and was always <10% of the total binding. Bound and free radioactivity were separated by filtering the assay mixture through Whatman GF/B glass-fiber filters, using a Brandel cell harvester (Brandel Instruments, Unterföhring, Germany). The filter bound radioactivity was counted by Packard Tri Carb 2810 TR scintillation counter (Perkin Elmer).
The protein concentration was determined according to a Bio-Rad method, with bovine albumin as a standard reference. Inhibitory binding constant (Ki) values were calculated from those of IC50 according to the Cheng–Prusoff equation, Ki = IC50/(1 + [C*]/KD*), where [C*] is the concentration of the radioligand, and KD* its dissociation constant. Ki and IC50 values were calculated by non-linear regression analysis, using the equation for a sigmoid concentration-response curve (Graph-PAD Prism, San Diego, CA, USA).

hA1AR = molecular target: T2, hA1AR (Homo sapiens, UniProt P30542); test: Modulation of Forskolin-stimulated cAMP levels in hA1 CHO cells; type: cell-based; conditions: for EC50: footnote c, mean ± SEM of four experiments, read-out: hA1AR EC50 or IC50, potency to modulate Forskolin-stimulated cAMP levels; for hA1AR Efficacy: normalized: CCPA full agonist = 100%, DPCPX inverse agonist = −100%; for hA1AR Profile: pharmacological profile in cAMP assay
T2 construct: host or cells: CHO cells
T2 sequence (P30542 1-326): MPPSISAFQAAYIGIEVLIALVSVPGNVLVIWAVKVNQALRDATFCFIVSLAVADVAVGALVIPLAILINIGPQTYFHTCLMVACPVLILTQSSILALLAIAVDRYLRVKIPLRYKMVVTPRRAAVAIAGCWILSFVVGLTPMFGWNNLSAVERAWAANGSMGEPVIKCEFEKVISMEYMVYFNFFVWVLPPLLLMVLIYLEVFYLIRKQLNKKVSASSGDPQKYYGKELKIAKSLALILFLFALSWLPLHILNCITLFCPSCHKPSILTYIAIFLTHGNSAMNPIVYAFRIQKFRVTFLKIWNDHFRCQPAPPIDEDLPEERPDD
Method: (§2) The amino-3,5-dicyanopyridines 1–21 were tested for their affinity at hA1, hA2A and hA3 ARs, stably transfected in Chinese Hamster Ovary (CHO) cells. Moreover, they were also studied as hA2B agonists by evaluating their stimulatory effect on cAMP production in CHO cells, stably expressing the hA2B AR. […] Due to their interesting pan profile, both compounds 1 and 5 were evaluated as AR agonists also at the hA2A and hA3 subtypes.
as §1
(§3) CHO cells transfected with hAR subtypes were washed with phosphate-buffered saline, detached with tripsine and centrifuged for 10 min at 200× g. Cells were seeded in a 96-well white half-area microplate (Perkin Elmer, Boston, USA) in a stimulation buffer composed of Hank Balanced Salt Solution, 5 mM HEPES, 0.5 mM Ro 20–1724, 0.1% BSA. The cAMP levels were then quantified by using the AlphaScreen cAMP Detection Kit (Perkin Elmer, Boston, MA, USA), following the manufacturer’s instructions. At the end of the experiments, the plates were read with a Perkin Elmer EnSight Multimode Plate Reader.

hA2AAR [2] = molecular target: T1, hA2AAR; test: cAMP assay in hA2A CHO cells; type: cell-based; conditions: for EC50: cAMP assay, hA2A CHO cells; for hA2AAR Efficacy: normalized: CGS21680 full agonist = 100%
Method: as §2, §1, §3

hA3AR = molecular target: T3, hA3AR (Homo sapiens, UniProt P0DMS8); test: Modulation of Forskolin-stimulated cAMP levels in hA3 CHO cells; type: cell-based; conditions: for IC50: cAMP assay, hA3 CHO cells, read-out: hA3AR IC50, potency to modulate Forskolin-stimulated cAMP levels; for hA3AR Efficacy: normalized: 2-Cl-IB-MECA full agonist = 100%
T3 construct: host or cells: CHO cells
T3 sequence (P0DMS8 1-318): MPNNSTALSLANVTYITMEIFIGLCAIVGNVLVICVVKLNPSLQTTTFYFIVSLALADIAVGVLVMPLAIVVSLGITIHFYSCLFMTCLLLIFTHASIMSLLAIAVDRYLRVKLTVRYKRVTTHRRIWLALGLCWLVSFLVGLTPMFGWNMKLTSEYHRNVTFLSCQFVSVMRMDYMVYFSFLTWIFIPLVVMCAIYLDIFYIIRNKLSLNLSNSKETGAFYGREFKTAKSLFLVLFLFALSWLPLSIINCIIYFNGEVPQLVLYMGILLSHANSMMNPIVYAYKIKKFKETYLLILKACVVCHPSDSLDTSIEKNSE
Method: as §2, §1, §3

T1 sequence (P29274 whole entry): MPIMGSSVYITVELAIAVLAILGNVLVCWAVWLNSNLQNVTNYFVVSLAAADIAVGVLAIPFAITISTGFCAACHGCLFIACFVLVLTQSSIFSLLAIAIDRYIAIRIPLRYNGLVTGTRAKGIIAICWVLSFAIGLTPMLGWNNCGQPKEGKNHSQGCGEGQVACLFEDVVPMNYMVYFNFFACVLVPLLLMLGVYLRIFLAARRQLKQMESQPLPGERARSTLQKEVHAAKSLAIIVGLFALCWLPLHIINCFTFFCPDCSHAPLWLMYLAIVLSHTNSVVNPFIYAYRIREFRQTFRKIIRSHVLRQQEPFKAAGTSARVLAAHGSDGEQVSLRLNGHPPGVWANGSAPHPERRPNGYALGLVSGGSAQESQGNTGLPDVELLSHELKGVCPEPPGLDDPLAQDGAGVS

Ki (hA2AAR [1])	EC50 (hA1AR)	hA1AR Efficacy (hA1AR)	hA1AR Profile (hA1AR)	EC50 (hA2AAR [2])	hA2AAR Efficacy (hA2AAR [2])	IC50 (hA3AR)	hA3AR Efficacy (hA3AR)	SMILES
21 ± 2 nM	12.2 ± 1.2 nM	31 ± 3%	Partial Agonist	15.1 ± 1.3 nM	39 ± 3%	68 ± 6 nM	45 ± 4%	N#Cc1c(N)nc(SCc2ncc[nH]2)c(C#N)c1-c1ccco1 [Compound 1, 2-Amino-4-(furan-2-yl)-6-[(1H-imidazol-2-ylmethyl)sulfanyl]pyridine-3,5-dicarbonitrile]
24 ± 2 nM	1.95 ± 0.16 nM	75 ± 5%	Partial Agonist	11.3 ± 1 nM	40 ± 3%	33 ± 2 nM	34 ± 3%	N#Cc1c(N)nc(SCc2ncc[nH]2)c(C#N)c1-c1cccs1 [Compound 5, 2-Amino-6-[(1H-imidazol-2-ylmethyl)sulfanyl]-4-(thiophen-2-yl)pyridine-3,5-dicarbonitrile]
